T1: Solute carrier family 22 member 2 (Rattus norvegicus, UniProt Q9R0W2)
T1 sequence (Q9R0W2 whole entry): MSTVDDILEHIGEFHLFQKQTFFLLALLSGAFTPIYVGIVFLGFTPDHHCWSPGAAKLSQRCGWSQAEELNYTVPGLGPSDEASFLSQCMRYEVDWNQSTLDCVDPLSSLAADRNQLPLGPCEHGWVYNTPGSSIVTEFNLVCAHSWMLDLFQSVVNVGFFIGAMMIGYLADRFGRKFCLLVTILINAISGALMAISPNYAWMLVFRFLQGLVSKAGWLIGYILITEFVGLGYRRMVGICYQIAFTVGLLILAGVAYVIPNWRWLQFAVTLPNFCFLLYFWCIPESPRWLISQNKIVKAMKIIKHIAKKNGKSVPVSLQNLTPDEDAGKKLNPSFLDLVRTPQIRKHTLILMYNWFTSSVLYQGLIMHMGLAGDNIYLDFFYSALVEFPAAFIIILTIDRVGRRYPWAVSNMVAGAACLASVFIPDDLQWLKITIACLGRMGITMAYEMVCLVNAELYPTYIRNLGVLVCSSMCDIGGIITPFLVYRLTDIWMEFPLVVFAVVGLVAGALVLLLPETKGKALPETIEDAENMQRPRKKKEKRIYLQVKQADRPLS

T2: Solute carrier family 22 member 1 (Rattus norvegicus, UniProt Q63089)
T2 sequence (Q63089 whole entry): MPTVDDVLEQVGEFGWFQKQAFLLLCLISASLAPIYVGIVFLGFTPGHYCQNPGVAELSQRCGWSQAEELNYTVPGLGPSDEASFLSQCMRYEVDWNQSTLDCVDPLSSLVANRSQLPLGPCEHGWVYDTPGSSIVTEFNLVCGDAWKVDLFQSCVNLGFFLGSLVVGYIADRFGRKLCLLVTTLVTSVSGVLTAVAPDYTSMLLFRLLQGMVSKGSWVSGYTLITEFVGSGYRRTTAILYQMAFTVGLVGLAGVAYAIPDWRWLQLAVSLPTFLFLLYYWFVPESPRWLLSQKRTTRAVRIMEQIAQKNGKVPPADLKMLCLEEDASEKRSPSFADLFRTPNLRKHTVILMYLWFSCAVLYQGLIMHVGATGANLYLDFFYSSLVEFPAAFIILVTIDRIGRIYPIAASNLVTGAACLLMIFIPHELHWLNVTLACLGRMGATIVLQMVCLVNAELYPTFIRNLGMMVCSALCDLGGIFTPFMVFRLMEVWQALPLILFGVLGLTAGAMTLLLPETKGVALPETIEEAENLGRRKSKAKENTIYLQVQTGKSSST


Columns and labels:
[1] = target: T1, Solute carrier family 22 member 2; test: TP_TRANSPORTER: inhibition pramipexole uptake in rOCT2-injected oocytes; format: functional, cell-based, Oocyte
[2] = target: T2, Solute carrier family 22 member 1; test: TP_TRANSPORTER: inhibition pramipexole uptake in rOCT1-injected oocytes; format: functional, cell-based, Oocyte
[3] = target: T1, Solute carrier family 22 member 2; test: TP_TRANSPORTER: uptake in Xenopus laevis oocytes; conditions: Xenopus laevis oocytes expressing the transporter
[4] = substrate: CCCN[C@H]1CCc2nc(N)sc2C1; test: cells, lysate or membranes named

Row | Molecule | IC50 [1] [µM] | IC50 [2] [µM] | Km [3] [µM] | Km [4] [µM]
1 | NC12CC3CC(CC(C3)C1)C2 [AMANTADINE] | 271 | 76.3 |  | 
2 | CCN(CC)CCNC(=O)c1ccc(N)cc1 [PROCAINAMIDE] | 167 |  |  | 
3 | Solute carrier family 22 member 2 (Rattus norvegicus) (protein) MSTVDDILEHIGEFHLFQKQTFFLLALLSGAFTPIYVGIVFLGFTPDHHCWSPGAAKLSQRCGWSQAEELNYTVPGLGPSDEASFLSQCMRYEVDWNQSTLDCVDPLSSLAADRNQLPLGPCEHGWVYNTPGSSIVTEFNLVCAHSWMLDLFQSVVNVGFFIGAMMIGYLADRFGRKFCLLVTILINAISGALMAISPNYAWMLVFRFLQGLVSKAGWLIGYILITEFVGLGYRRMVGICYQIAFTVGLLILAGVAYVIPNWRWLQFAVTLPNFCFLLYFWCIPESPRWLISQNKIVKAMKIIKHIAKKNGKSVPVSLQNLTPDEDAGKKLNPSFLDLVRTPQIRKHTLILMYNWFTSSVLYQGLIMHMGLAGDNIYLDFFYSALVEFPAAFIIILTIDRVGRRYPWAVSNMVAGAACLASVFIPDDLQWLKITIACLGRMGITMAYEMVCLVNAELYPTYIRNLGVLVCSSMCDIGGIITPFLVYRLTDIWMEFPLVVFAVVGLVAGALVLLLPETKGKALPETIEDAENMQRPRKKKEKRIYLQVKQADRPLS |  |  |  | 17

Now from value to molecule, other results behind:

Row | IC50 [1] [µM] | IC50 [2] [µM] | Km [3] [µM] | Molecule | Km [4] [µM]
4 | 10.7 | 164 |  | C[C@]12C[C@H](O)[C@H]3[C@@H](CCC4=CC(=O)CC[C@@]43C)[C@@H]1CC[C@@H]2C(=O)CO [CORTICOSTERONE] | 
5 |  |  | 17 | CCCN[C@H]1CCc2nc(N)sc2C1 [PRAMIPEXOLE] | 
